Results: US10036034B2, “Sequences involved in plant yield and methods of using” (NUtech Ventures, priority 2014, dated 2018)
Like-named read-outs stand apart in the source and are kept apart here. Marks after values point to notes of the source that are not given here.

Columns and labels:
[1] = tested on: P76 and TL seedlings; assay: Effect of GA biosynthesis inhibitor Paclobutrazol (PAC) on lateral root density of wheat seedlings; assay type: in vivo; conditions: for Lateral Root Density / Number of Lateral Roots / Primary Root Length: 6 d old seedlings
Source text: (§1) For the early seedling stage root screening we used the cigar roll method (Zhu et al., 2006, TAG, 113:1-10). Similar sized seeds were germinated in a petri dish with moist paper towel for three days in the dark at 22-2S° C. Three seedlings per genotype were placed between two sheets of germination paper and rolled vertically. Three batches of 10 cigar rolls, totaling 30 plants per genotype were soaked in tap water and placed vertically in 1 L beaker filled with SO mL of water. Seedlings were grown in a controlled environment using a Percival Intellus Control System incubator (Model: I36VLC8) set at 25/27° C., 11.5/12.5 h day/night, 50/70% relative humidity and illumination of 80 μmols m^−2 sec^−1 during the duration of the experiments (Percival Scientific, Inc., Iowa). Water was added to each beaker twice daily to maintain the volume of 50 ml. All measurements were carried until 6 days after germination. Measurements after Day 6 can potentially be affected by limiting seed resources that drive seedling growth. For gene expression experiments, seedlings were harvested at 2, 4 and 6 days after germination. Root tissue samples were collected and snap frozen. It was hypothesized that the differences in biomass and yield between the Agropyron 7DL lines and the corresponding parental genotypes could be due to increased investment in root production, thus increasing acquisition of water and nutrients from the soil. We used a parent line, Pavon76 (P76), the 1-96-1 translocation line (TL), and a negative control (NC) for the translocation event for these experiments (FIG. 1). The total number of lateral roots (>1 mm) on the primary root axis were counted, and lateral root density was calculated by dividing the number of lateral roots on the primary root axis by the primary root length. Statistical significance was determined using a one-way ANOVA using Tukeys method. Transcriptomic comparison of the TL line and P76 indicated the differential regulation of several gibberellic acid associated genes (GSE42214; Table 8). Therefore, we tested the role of GA in lateral root regulation by treating TL and P76 seedlings with 104 GA3 in WW and LW conditions. […] Given the positive impact of exogenous GA on lateral roots, we measured the endogenous GA level in 6 d seedling roots. GA1 decreased in P76 in LW compared to WW (FIG. 13a). […] Higher GA levels in TL than P76 in LW is likely associated with its ability to maintain lateral root growth in LW. Auxin, which promotes lateral root growth, was not deficient in P76 relative to TL in LW, further supporting a GA-dependent mechanism for maintaining lateral root growth in TL (FIG. 21) (Orman-Ligeza et al., 2013, Trends Plant Sci., 18:459-67; Lavenus et al, 2013, Trends Plant Sci., 18:450-8).

[2] = tested on: TL and P76 seedlings; assay: Effect of Gibberellin A3 (GA3) on lateral root density of wheat seedlings in WW and LW conditions; assay type: in vivo; conditions: for Lateral Root (PR) / Lateral Root Density / Primary Root Length: mean ± s.d., n = 30
Source text: as §1

[3] = tested on: LRD7Ag; assay: qRT-PCR of LRD7Ag root transcript in GA pretreated TL seedlings; assay type: in vivo, wheat; conditions: GA pretreated TL seedlings in LW
Source text: FIG. 13 is data showing that gibberellins (GA) regulate lateral root formation in wheat. Panel (a) is a graph showing GA1 levels in P76 and TL roots in WW and LW conditions (mean±sd, n=30). “a” represents differences between WW and LW for a genotype and “b” represents significant genotypic differences under LW (p<0.05). Panel (b) is a graph showing expression of Agropyron allele of LRD7 (LRD7Ag) in the TL line in WW and LW conditions, with and without GA3 treatment. Transcript abundance was measured relative to WW, non-GA3 treated sample (mean±sd, n=3). “a” represents significant differences between WW and LW for roots with GA3 and no GA3 treatment, “b” represents a significant difference in response to GA treatment (p<0.05). […] Expression values were obtained relative to WW, non-GA3 treated sample as control (mean±sd, n=3). “a” represents significant differences between WW and LW for a genotype and “b” represents significant genotypic differences in LW conditions (p<0.05). […]
(§2) We used SuperScript VILO to synthesize cDNA for semi- and real-time quantitative PCR (qPCR) (Invitrogen Corp., Carlsbad, Calif.). […] Crossing point value (Cp or Ct), which was the point at which the fluorescence crosses the threshold, and melting curve analyses were obtained using the LightCycler Roche 480 Software v1.5. […]

[4] = tested on: LRD7Ta; assay: qRT-PCR of LRD7Ta expression in GA pretreated P76 roots; assay type: in vivo, wheat
Source text: FIG. 13 is data showing that gibberellins (GA) regulate lateral root formation in wheat. Panel (a) is a graph showing GA1 levels in P76 and TL roots in WW and LW conditions (mean±sd, n=30). “a” represents differences between WW and LW for a genotype and “b” represents significant genotypic differences under LW (p<0.05). Panel (b) is a graph showing expression of Agropyron allele of LRD7 (LRD7Ag) in the TL line in WW and LW conditions, with and without GA3 treatment. Transcript abundance was measured relative to WW, non-GA3 treated sample (mean±sd, n=3). “a” represents significant differences between WW and LW for roots with GA3 and no GA3 treatment, “b” represents a significant difference in response to GA treatment (p<0.05). […] “a” represents significant differences between WW and LW for a genotype and “b” represents significant genotypic differences in LW conditions (p<0.05). […] The “a” represents significance between WW and LW and “b” indicates significance between CBO37 and RNAi or OE events or between P76 and TL under LW (p<0.05).
as §2

For CC(C)(C)[C@@H](O)[C@@H](Cc1ccc(Cl)cc1)n1cncn1 (racemic) [PAC, Paclobutrazol], the “Lateral Root Density” value ([1]; P76, LW (+PAC)) was 0.22 ± 0.1^b cm−1, the “Number of Lateral Roots” value ([1]; P76, LW (+PAC)) was 5 ± 2^b and the “Primary Root Length” value ([1]; P76, LW (+PAC)) was 24.2 ± 2.9 cm. The “Lateral Root Density” value ([1]; P76, WW (+PAC)) was 0.45 ± 0.1^b cm−1, the “Number of Lateral Roots” value ([1]; P76, WW (+PAC)) was 11 ± 2^b and the “Primary Root Length” value ([1]; P76, WW (+PAC)) was 25.3 ± 3.0 cm. The “Lateral Root Density” value ([1]; TL, LW (+PAC)) was 0.41 ± 0.1^b cm−1, the “Number of Lateral Roots” value ([1]; TL, LW (+PAC)) was 10 ± 1^b and the “Primary Root Length” value ([1]; TL, LW (+PAC)) was 23.9 ± 2.6 cm. The “Lateral Root Density” value ([1]; TL, WW (+PAC)) was 0.49 ± 0.1^b cm−1, the “Number of Lateral Roots” value ([1]; TL, WW (+PAC)) was 11 ± 2^b and the “Primary Root Length” value ([1]; TL, WW (+PAC)) was 22.7 ± 2.4 cm. The “Effect on lateral root formation” value ([1]; both P76 and TL) was “specifically suppressed lateral root formation”.

With C=C1C[C@]23C[C@@]1(O)CC[C@H]2[C@@]12C=C[C@H](O)[C@@](C)(C(=O)O1)[C@H]2[C@@H]3C(=O)O [GA3, Gibberellin A3] the “Effect of GA treatment on lateral root number and density” value ([2]; P76, LW) was “restored lateral root number and density to WW levels”, the “Lateral Root (PR)” value ([2]; P76, LW (+GA3)) was 23 ± 3^b and the “Lateral Root Density” value ([2]; P76, LW (+GA3)) was 0.96 ± 0.1^b cm^−1. The “Primary Root Length” value ([2]; P76, LW (+GA3)) was 23.9 ± 2.2^b cm, the “Lateral Root (PR)” value ([2]; P76, WW (+GA3)) was 24 ± 4 and the “Lateral Root Density” value ([2]; P76, WW (+GA3)) was 0.96 ± 0.1 cm⁻¹. The “Primary Root Length” value ([2]; P76, WW (+GA3)) was 25.5 ± 2.8 cm, the “Effect of GA treatment on roots” value ([2]; P76 and TL, WW conditions) was “had no effect on roots of either genotype” and the “Effect of GA treatment on lateral root number and density” value ([2]; TL, LW) was “increased the TL lateral root number and density under LW to above the untreated values”. The “Lateral Root (PR)” value ([2]; TL, LW (+GA3)) was 38 ± 4^b, the “Lateral Root Density” value ([2]; TL, LW (+GA3)) was 1.44 ± 0.1^b cm^−1 and the “Primary Root Length” value ([2]; TL, LW (+GA3)) was 26.4 ± 2.4 cm. For the same compound, the “Lateral Root (PR)” value ([2]; TL, WW (+GA3)) was 24 ± 5, the “Lateral Root Density” value ([2]; TL, WW (+GA3)) was 0.89 ± 0.2 cm⁻¹ and the “Repression of root transcript abundance of LRD7Ag relative to untreated WW control” value [3] was 5 fold. The “LRD7Ta expression in roots compared to LW (no GA) roots” value [4] was “down-regulated” and the “LRD7Ta expression in roots compared to LW (no GA) roots” value ([4]; listed as GA) was “decreased LRD7Ta expression”.
